Assay results from publication PMC7367283, “A PIP2 substitute mediates voltage sensor-pore coupling in KCNQ activation” (Communications Biology, 2020).

Biological target: T1, KV4.2 (Rattus norvegicus, UniProt Q63881)
T1 sequence (Q63881 1-630): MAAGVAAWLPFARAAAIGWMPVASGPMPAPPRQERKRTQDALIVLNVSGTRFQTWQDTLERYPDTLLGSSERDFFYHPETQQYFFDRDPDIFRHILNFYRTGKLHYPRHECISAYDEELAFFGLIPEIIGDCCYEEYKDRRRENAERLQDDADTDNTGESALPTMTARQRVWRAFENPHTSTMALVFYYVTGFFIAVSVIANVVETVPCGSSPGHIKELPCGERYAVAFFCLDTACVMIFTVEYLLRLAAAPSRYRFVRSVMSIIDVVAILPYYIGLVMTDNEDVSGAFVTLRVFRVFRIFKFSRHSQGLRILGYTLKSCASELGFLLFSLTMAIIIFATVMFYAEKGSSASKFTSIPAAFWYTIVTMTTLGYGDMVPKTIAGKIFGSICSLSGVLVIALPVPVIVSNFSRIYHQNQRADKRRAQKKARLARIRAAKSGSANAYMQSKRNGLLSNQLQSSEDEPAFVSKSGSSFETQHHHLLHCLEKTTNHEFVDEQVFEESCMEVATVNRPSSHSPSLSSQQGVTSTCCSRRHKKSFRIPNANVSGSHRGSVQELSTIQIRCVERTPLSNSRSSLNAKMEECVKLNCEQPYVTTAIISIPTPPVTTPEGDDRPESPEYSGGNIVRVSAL
Assay: Two-electrode voltage clamp of KV4.2 in Xenopus oocytes
Format: cell-based, human
Conditions: 10 µM CP1
Excerpt: Since CP1 has a similar effect to PIP2 in mediating VSD-pore coupling in KCNQ channels, we tested if CP1 has effects on other ion channels that are also sensitive to PIP2 or are voltage activated and share general structural features of the VSD and the pore with KCNQ. […] On the other hand, NaV1.5 and KV4.2 are voltage-gated ion channels.
Fig. 6 Effects of CP1 on other ion channels expressed in Xenopus oocytes. a Currents of Kir1.1, CaV1.2, NaV1.5, hERG, and KV4.2 before and after application of 10 µM CP1, respectively. The voltages for holding, test, and returning pulses were Kir1.1, 0 mV, −100 to +60 mV, 0; CaV1.2, −100 mV, −100 to +60, −100 mV; NaV1.5, −100, −120 to +40 mV, −120 mV; hERG, −80 mV, −90 to +60 mV, −60 mV; KV4.2, −80 mV, −100 mV to +80 mV, −40 mV; HCN4, −30 mV, −30 to −140 mV, −120 mV. b Current–voltage relations of Kir1.1 channel in the absence or presence of 10 µM CP1 (n = 7). c–g G–V relations of indicated channels with and without 10 µM CP1. The ΔV1/2 of G–V relations (mV) are CaV1.2, 3.38 ± 0.71 mV (c); NaV1.5, −2.26 ± 0.95 mV (d); hERG, 6.85 ± 1.81 mV (e); KV 4.2, −2.26 ± 2.88 mV (f); HCN4, 17.13 ± 1.59 mV (g).
Complementary DNA (cDNA) encoding human KCNQ1 (UniProtKB/Swiss‐Prot under accession no. P51787), KCNQ2 (O43526), KCNQ3 (O43525), KCNE1 (P15382), Kir1.1 (P48048), hERG (Q12809), KV4.2 (Q63881), NaV1.5 (Q14524), NaV β1 (Q07699), CaV1.2 (Q13936), CaV β1a (Q02641), CaV α2/δ1 (P54289), and HCN4 (Q9Y3Q4) were subcloned into oocyte expression vectors, respectively. Site-directed mutations of the KCNQ1 channel were all produced by overlap extension polymerase chain reaction (PCR) with high-fidelity Pfu polymerase (Stratagene, CA). The presence of the desired mutation was verified by sequencing the PCR-amplified regions. All the primer sequences used in this study are available in Supplementary Table 1. The complementary RNA (cRNA) of all these channels and mutations was transcribed in vitro with the T3, T7, or SP6 polymerase mMessage mMachine kit (Invitrogen, Thermo Fisher Scientific, MO).
The whole-oocyte ionic currents were recorded with a GeneClamp 500B amplifier (Axon Instruments, CA) or iTEV90 amplifier (HEKA, Germany) and then sampled at 1 kHz and low-pass-filtered at 2 kHz. The Patchmaster software (HEKA, Germany) was used to acquire data. The Kir1.1 current was recorded with a high K^+ bath solution containing (in mM) 96 KCl, 4 NaCl, 1 CaCl2, 2 MgCl2, and 10 HEPES, pH 7.3–7.4. The HCN4 current was recorded in ND66 solution containing (in mM) 66 NaCl, 32 KCl, 1.8 CaCl2, 1 MgCl2, and 5 HEPES, pH 7.6. All the other potassium channels were recorded in ND96 solution. The currents of CaV1.2 channel were recorded in 40 mM Ba^2+ bath solution containing (in mM) 40 Ba(OH)2, 50 TEA-OH, 2 KOH, and 5 HEPES, adjusted to pH 7.4 with methanesulfonic acid. CP1 (DISODIUM 5-BROMO-2-[9-CHLORO-3-(SULFONATOOXY) NAPHTHO [1,2-B] THIEN-2-YL]-1H-INDOL-3-YL SULFATE, Sigma-Aldrich, MO) and Chromanol 293B (Sigma-Aldrich, MO) were dissolved in bath solutions. All the chemicals were purchased from Sigma-Aldrich. To measure the I–V relations of the Kir1.1 channel, the test voltage was set from −100 to +60 mV for 1 s with 20-mV increments. The test pulses were stepped from a holding potential of 0 mV and then stepped back to 0 mV. The HCN4 currents were recorded by a test pulse between −30 and −140 mV in 10-mV step from a holding potential of −30 mV. For all the other potassium channels and CaV1.2 channel, the holding potential was −80 or −100 mV, and the test pulse was applied with 10-mV increment, which was followed with a repolarization pulse at −40 mV before returning to the holding potential. The durations of test and the repolarization pulse vary for different channels to allow the activation and deactivation of the channel to reach their steady states.

O=S(=O)([O-])Oc1c(-c2sc3c(ccc4cccc(Cl)c43)c2OS(=O)(=O)[O-])[nH]c2ccc(Br)cc12.[Na+].[Na+] [CP1, DISODIUM 5-BROMO-2-[9-CHLORO-3-(SULFONATOOXY) NAPHTHO [1,2-B] THIEN-2-YL]-1H-INDOL-3-YL SULFATE]
ΔV1/2 of G–V relations: −2.26 ± 2.88 mV | G/Gmax Mean (Fig. 6f) (voltage 0 mV): 0.3489 | G/Gmax Mean (Fig. 6f) (voltage 10 mV): 0.4229 | G/Gmax Mean (Fig. 6f) (voltage 20 mV): 0.5032 | G/Gmax Mean (Fig. 6f) (voltage 30 mV): 0.5901 | G/Gmax Mean (Fig. 6f) (voltage 40 mV): 0.6796 | G/Gmax Mean (Fig. 6f) (voltage 50 mV): 0.7731 | G/Gmax Mean (Fig. 6f) (voltage 60 mV): 0.8507 | G/Gmax Mean (Fig. 6f) (voltage 70 mV): 0.9365 | G/Gmax Mean (Fig. 6f) (voltage 80 mV): 1.0000 | G/Gmax Mean (Fig. 6f) (voltage -10 mV): 0.2734 | G/Gmax Mean (Fig. 6f) (voltage -20 mV): 0.2218 | G/Gmax Mean (Fig. 6f) (voltage -30 mV): 0.1858 | G/Gmax Mean (Fig. 6f) (voltage -40 mV): 0.1969 | G/Gmax Mean (Fig. 6f) (voltage -50 mV): 0.2134
